# Measurements reported in the supplement of paper PMC10307832.
# Experiments:
# Assay in all cases: relative viability (nuclei count vs DMSO), 5 days (fraction); higher = more cells survive
# Doramapimod + Foretinib = compound: Cc1ccc(-n2nc(C(C)(C)C)cc2NC(=O)Nc2ccc(OCCN3CCOCC3)c3ccccc23)cc1 [Doramapimod] + COc1cc2c(Oc3ccc(NC(=O)C4(C(=O)Nc5ccc(F)cc5)CC4)cc3F)ccnc2cc1OCCCN1CCOCC1 [Foretinib] (partner 0.25 µM)
# Summary of the method: (§1)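 Lung cancer cell lines in 1536-well plates got either a single drug or a fixed anchor-drug dose together with five library-drug doses (not always all listed) in √10 steps, by pin tool, on the day after seeding. Nuclei were counted after 5 days, and relative viability is the treated-to-vehicle ratio of nuclei counts. Values are medians of duplicate plates.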
# Doramapimod + Pemetrexed = compound: Cc1ccc(-n2nc(C(C)(C)C)cc2NC(=O)Nc2ccc(OCCN3CCOCC3)c3ccccc23)cc1 [Doramapimod] + Nc1nc2[nH]cc(CCc3ccc(C(=O)N[C@@H](CCC(=O)O)C(=O)O)cc3)c2c(=O)[nH]1 [Pemetrexed] (partner 0.2 µM)
# Summary of the method: as §1
# RAF265 + Dasatinib = compound: Cn1c(Nc2ccc(C(F)(F)F)cc2)nc2cc(Oc3ccnc(-c4ncc(C(F)(F)F)[nH]4)c3)ccc21 [RAF265] + Cc1nc(Nc2ncc(C(=O)Nc3c(C)cccc3Cl)s2)cc(N2CCN(CCO)CC2)n1 [Dasatinib] (partner 0.075 µM)
# Summary of the method: as §1
# RAF265 + Pemetrexed = compound: Cn1c(Nc2ccc(C(F)(F)F)cc2)nc2cc(Oc3ccnc(-c4ncc(C(F)(F)F)[nH]4)c3)ccc21 [RAF265] + Nc1nc2[nH]cc(CCc3ccc(C(=O)N[C@@H](CCC(=O)O)C(=O)O)cc3)c2c(=O)[nH]1 [Pemetrexed] (partner 0.2 µM)
# Summary of the method: as §1
Cell Line,relative viability (Doramapimod + Foretinib; first compound 0.02 µM),relative viability (Doramapimod + Foretinib; first compound 0.06325 µM),relative viability (Doramapimod + Foretinib; first compound 0.2 µM),relative viability (Doramapimod + Foretinib; first compound 0.6325 µM),relative viability (Doramapimod + Foretinib; first compound 2 µM),relative viability (Doramapimod + Pemetrexed; first compound 0.02 µM),relative viability (Doramapimod + Pemetrexed; first compound 0.06325 µM),relative viability (Doramapimod + Pemetrexed; first compound 0.2 µM),relative viability (Doramapimod + Pemetrexed; first compound 0.6325 µM),relative viability (Doramapimod + Pemetrexed; first compound 2 µM),relative viability (RAF265 + Dasatinib; first compound 0.01 µM),relative viability (RAF265 + Dasatinib; first compound 0.03162 µM),relative viability (RAF265 + Dasatinib; first compound 0.1 µM),relative viability (RAF265 + Dasatinib; first compound 0.3162 µM),relative viability (RAF265 + Dasatinib; first compound 1 µM),relative viability (RAF265 + Pemetrexed; first compound 0.01 µM),relative viability (RAF265 + Pemetrexed; first compound 0.03162 µM),relative viability (RAF265 + Pemetrexed; first compound 0.1 µM),relative viability (RAF265 + Pemetrexed; first compound 0.3162 µM),relative viability (RAF265 + Pemetrexed; first compound 1 µM)
201T,1.01,1.03,1.1,1.41,0.974,0.308,0.333,0.347,0.331,0.318,0.575,0.624,0.532,0.495,0.458,0.352,0.316,0.344,0.311,0.313
A549,0.91,1,0.992,1.06,0.875,,,,,,,,,,,,,,,
A-427,1.02,1.15,1.12,,0.997,0.926,1,1,,0.988,0.641,0.615,0.685,0.469,0.131,1.06,0.939,1.03,0.678,0.468
ABC-1,1.39,1.11,1.05,0.919,0.881,,,,,,0.594,0.562,0.601,0.498,0.378,,,,,
BEN,0.663,0.639,0.603,0.469,0.676,0.74,0.849,0.795,0.673,0.795,0.28,0.323,0.379,0.358,0.356,0.795,0.835,0.99,0.798,0.692
CAL-12T,1.11,1.15,1.03,1.1,0.983,1.02,1.08,1.25,1.22,0.947,0.313,0.312,0.191,0.196,0.103,1.21,0.925,1.13,0.978,0.661
COR-L23,0.945,0.926,0.966,1.01,0.855,0.222,0.203,0.212,0.19,0.2,0.503,0.473,0.383,0.32,0.251,0.188,0.206,0.202,0.182,0.184
COR-L 105,1.03,0.834,1.04,1.34,0.917,1.21,1.05,0.995,1.31,0.951,0.311,0.319,0.258,0.159,0.158,1.27,0.941,1.31,0.714,0.685
Calu-6,0.903,0.914,0.941,0.942,0.919,,,,,,,,,,,,,,,
ChaGo-K-1,0.922,0.907,0.892,0.949,0.831,0.263,0.254,0.255,0.26,0.243,0.64,0.644,0.515,0.42,0.497,0.262,0.273,0.248,0.262,0.325
EBC-1,0.117,0.102,0.0979,0.0935,0.1,,,,,,,,,,,,,,,
EKVX,0.831,0.829,0.789,0.746,0.764,0.426,0.34,0.325,0.415,0.357,0.598,0.606,0.756,,0.382,0.373,0.44,0.456,0.255,0.358
EMC-BAC-2,0.999,1.02,1.09,1.23,1,0.455,0.426,0.418,0.46,0.369,0.318,0.256,0.196,0.224,0.0752,0.432,0.406,0.427,0.347,0.258
EPLC-272H,0.776,0.658,0.788,0.934,0.57,0.351,0.301,0.303,0.374,0.327,0.34,0.303,0.238,0.234,0.139,0.327,0.319,0.406,0.213,0.177
H3255,0.844,0.883,0.945,0.637,0.726,0.577,0.56,0.562,0.559,0.525,0.526,0.332,0.381,,0.319,0.569,0.609,0.54,,0.569
HARA,0.88,0.841,0.767,,0.746,0.246,0.234,0.266,0.314,0.225,0.298,0.385,0.256,0.184,0.137,0.269,0.275,0.239,0.218,0.259
HCC-15,1.07,1.01,0.964,,0.953,0.225,0.231,0.245,0.211,0.224,0.66,0.662,0.688,0.426,0.337,0.232,0.232,0.231,0.235,0.23
HCC-44,,,,,,0.673,0.649,0.712,0.605,0.614,,,,,,0.647,0.597,0.655,0.622,0.653
HCC-78,0.542,0.575,0.54,0.545,0.539,0.879,0.883,0.918,0.967,0.887,0.371,0.482,0.457,0.387,0.34,0.906,0.844,0.884,0.881,0.898
HCC-366,0.617,0.874,0.899,0.876,0.821,0.147,0.197,0.212,0.186,0.178,0.724,0.627,0.664,0.583,0.511,0.153,0.146,0.185,0.208,0.132

Cell Line,relative viability (Doramapimod + Foretinib; first compound 0.02 µM),relative viability (Doramapimod + Foretinib; first compound 0.06325 µM),relative viability (Doramapimod + Foretinib; first compound 0.2 µM),relative viability (Doramapimod + Foretinib; first compound 0.6325 µM),relative viability (Doramapimod + Foretinib; first compound 2 µM),relative viability (Doramapimod + Pemetrexed; first compound 0.02 µM),relative viability (Doramapimod + Pemetrexed; first compound 0.06325 µM),relative viability (Doramapimod + Pemetrexed; first compound 0.2 µM),relative viability (Doramapimod + Pemetrexed; first compound 0.6325 µM),relative viability (Doramapimod + Pemetrexed; first compound 2 µM),relative viability (RAF265 + Dasatinib; first compound 0.01 µM),relative viability (RAF265 + Dasatinib; first compound 0.03162 µM),relative viability (RAF265 + Dasatinib; first compound 0.1 µM),relative viability (RAF265 + Dasatinib; first compound 0.3162 µM),relative viability (RAF265 + Dasatinib; first compound 1 µM),relative viability (RAF265 + Pemetrexed; first compound 0.01 µM),relative viability (RAF265 + Pemetrexed; first compound 0.03162 µM),relative viability (RAF265 + Pemetrexed; first compound 0.1 µM),relative viability (RAF265 + Pemetrexed; first compound 0.3162 µM),relative viability (RAF265 + Pemetrexed; first compound 1 µM)
HCC-827,1.07,1.06,1.13,1.04,0.703,0.238,0.253,0.254,0.242,0.199,0.277,0.259,0.422,,0.234,0.281,0.24,0.214,,0.278
HOP-62,1.15,1.05,1.11,1.14,1.08,0.242,0.306,0.295,0.326,0.309,0.747,0.618,0.647,0.691,0.504,0.261,0.306,0.267,0.246,0.245
IA-LM,0.933,1.04,1.11,1.17,0.729,,,,,,,,,,,,,,,
LC-2-ad,0.927,0.882,0.865,0.559,0.807,0.268,0.291,0.297,0.28,0.289,0.57,0.691,0.386,0.27,0.196,0.275,0.3,0.288,0.292,0.258
LCLC-97TM1,0.842,1.02,0.895,0.94,0.819,0.181,0.171,0.164,0.184,0.156,0.826,0.826,0.66,0.852,0.442,0.145,0.155,0.149,0.153,0.128
LCLC-103H,0.627,0.691,0.598,0.857,0.73,0.436,0.417,0.413,0.428,0.424,0.431,0.467,0.478,0.386,0.338,0.496,0.423,0.476,0.459,0.429
LK-2,1.04,1.04,0.919,1.05,0.925,0.283,0.286,0.283,0.198,0.157,0.272,0.295,0.291,0.394,0.213,0.237,0.352,0.188,0.244,0.215
LOU-NH91,1.01,0.938,1.02,1.07,0.681,0.388,0.396,0.355,0.379,0.395,0.563,0.49,0.497,0.45,0.343,0.365,0.336,0.427,0.419,0.441
LU99A,0.791,0.781,0.914,0.801,0.724,0.175,0.196,0.155,0.18,0.323,0.534,0.454,0.472,0.3,0.179,0.199,0.186,0.161,0.177,0.241
LXF-289,0.955,1.04,0.999,0.955,0.928,0.959,0.914,0.83,0.863,0.971,0.246,0.152,0.16,0.142,0.0862,0.95,0.841,0.917,0.776,0.764
NCI-H23,0.952,1.05,0.947,1.05,0.95,0.607,0.749,0.679,0.703,0.533,0.716,0.75,0.622,0.48,0.325,0.633,0.573,0.53,0.351,0.366
NCI-H322M,1.11,0.913,1.08,1.05,1.05,0.666,0.653,0.64,0.644,0.654,0.267,0.278,0.229,0.303,0.213,0.587,0.605,0.472,0.357,0.335
NCI-H522,,,,,,0.909,1.05,0.797,0.715,0.796,0.847,0.9,0.811,0.919,0.764,0.922,1.15,1.09,1.13,1
NCI-H727,0.665,0.857,0.857,1.05,0.801,,,,,,0.57,0.427,0.352,0.279,0.23,,,,,
NCI-H1299,1.07,1.09,1.15,1.04,1.01,,,,,,,,,,,,,,,
NCI-H1623,0.95,0.791,0.86,0.743,0.746,,,,,,0.558,0.496,0.645,,0.313,,,,,
NCI-H1648,,,,,,0.745,0.87,0.584,0.705,0.632,,,,,,0.758,0.66,0.771,1.02,0.65
NCI-H1703,0.297,0.316,0.4,0.336,0.342,,,,,,,,,,,,,,,
NCI-H1792,,,,,,0.869,0.761,0.707,0.743,0.651,0.848,0.83,0.759,0.575,0.293,0.808,0.517,0.539,0.0889,0.118
